Series [1] is described as follows: Solubility of mefenamic acid in water and various aqueous solutions. Format: physicochemical. Particulars: for solubility: aqueous solution containing polyvinylpyrrolidone and basic substance.
For series [2] the following is noted: in words, background statement; cited from earlier work.

Molecules are shown by their SMILES.

This passage reports solubility, solubility and stability and solubility in water results from JPH1029937A, “メフェナム酸水溶液製剤” (KOBAYASHI SEIYAKU KOGYO KK, priority 1996, dated 1997).

On to `Cc1cccc(Nc2ccccc2C(=O)O)c1C` [メフェナム酸, N−2,3−キシリルアントラニル酸], for which the solubility entry in series [1] is “高い溶解性を示し”; in series [1] (with nonionic surfactant of HLB 14-15 added) it was “溶解性が飛躍的に向上する”. Moreover, the solubility and stability result in series [1] (aqueous solution of polyvinylpyrrolidone and surfactant mixture, approximately pH 7.0-8.0) is given as “良好な溶解性と安定性を示す”. The solubility in water result in series [2] is listed as “水に極めて溶けにくく”.
